The results in this text go back to patent US20250223607A1, “HPPD Variants and Methods of Use” (BASF Agricultural Solutions Seed US LLC, priority 2013, published 2025).

For assay [1], the target named is T1, Arabidopsis thaliana wild type HPPD “SEQ ID No. 32” (Arabidopsis thaliana, UniProt P93836).
T1 construct: made in house; host or cells: E. coli BL21 (DE3)
T1 sequence (P93836 with tags, fused parts or gaps): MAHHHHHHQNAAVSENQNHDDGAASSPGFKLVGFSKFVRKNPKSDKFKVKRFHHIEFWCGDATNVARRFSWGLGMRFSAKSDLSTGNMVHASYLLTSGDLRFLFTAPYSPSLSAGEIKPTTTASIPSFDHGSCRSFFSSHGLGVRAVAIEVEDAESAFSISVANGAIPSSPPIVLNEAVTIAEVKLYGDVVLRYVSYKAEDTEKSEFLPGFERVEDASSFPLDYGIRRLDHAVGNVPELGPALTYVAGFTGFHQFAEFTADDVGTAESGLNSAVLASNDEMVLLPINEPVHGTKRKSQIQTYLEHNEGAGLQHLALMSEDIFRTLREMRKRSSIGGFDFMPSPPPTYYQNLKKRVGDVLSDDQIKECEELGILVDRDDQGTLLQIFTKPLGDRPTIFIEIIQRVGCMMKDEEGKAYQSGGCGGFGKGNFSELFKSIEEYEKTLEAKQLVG
As to the kind of experiment: pI50 determination from dose-response plots of HPPD activity (standard spectrophotometric assay of WO 2009/144079). The assay is classed as biochemical. The source says:
(§1) In this content, pI50-value means the log value of the concentration of inhibitor necessary to inhibit 50% of the enzyme activity in molar concentration.

Assay [2] deals with T2, Arabidopsis HPPD single point mutant SEQ ID No. 35 (Arabidopsis thaliana, UniProt P93836, E252S).
T2 construct: made in house; host or cells: E. coli BL21 (DE3)
T2 sequence (P93836 whole entry E252S): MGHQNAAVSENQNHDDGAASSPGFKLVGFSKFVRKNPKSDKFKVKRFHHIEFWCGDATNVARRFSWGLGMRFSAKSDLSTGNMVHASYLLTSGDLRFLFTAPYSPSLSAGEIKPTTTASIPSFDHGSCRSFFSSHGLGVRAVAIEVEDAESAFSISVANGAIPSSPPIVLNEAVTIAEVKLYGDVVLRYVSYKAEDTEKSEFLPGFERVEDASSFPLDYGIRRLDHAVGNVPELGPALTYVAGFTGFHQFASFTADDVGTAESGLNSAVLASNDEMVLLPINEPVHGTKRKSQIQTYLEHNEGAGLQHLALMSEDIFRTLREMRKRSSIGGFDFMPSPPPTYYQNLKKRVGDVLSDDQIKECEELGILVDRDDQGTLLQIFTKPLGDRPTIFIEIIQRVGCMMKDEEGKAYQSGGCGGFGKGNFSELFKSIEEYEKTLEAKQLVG
Briefly: biochemical. Conditions: E252S mutant; 2 mM HPP, 3 minutes incubation.
Description: as §1

Assay [3] concerns the target T3, Arabidopsis HPPD single point mutant SEQ ID No. 40 (Arabidopsis thaliana, UniProt P93836, V269A).
T3 construct: made in house; host or cells: E. coli BL21 (DE3)
As to the kind of experiment: biochemical. The following applies: V269A mutant (SEQ ID No. 40); 2 mM HPP, 3 minutes incubation.
Description: as §1

In assay [4] the target is T4, Arabidopsis HPPD single point mutant SEQ ID No. 48 (Arabidopsis thaliana, UniProt P93836, K421Q).
T4 construct: made in house; host or cells: E. coli BL21 (DE3)
T4 sequence (P93836 other isoform, or with tags, fused parts or gaps K421Q): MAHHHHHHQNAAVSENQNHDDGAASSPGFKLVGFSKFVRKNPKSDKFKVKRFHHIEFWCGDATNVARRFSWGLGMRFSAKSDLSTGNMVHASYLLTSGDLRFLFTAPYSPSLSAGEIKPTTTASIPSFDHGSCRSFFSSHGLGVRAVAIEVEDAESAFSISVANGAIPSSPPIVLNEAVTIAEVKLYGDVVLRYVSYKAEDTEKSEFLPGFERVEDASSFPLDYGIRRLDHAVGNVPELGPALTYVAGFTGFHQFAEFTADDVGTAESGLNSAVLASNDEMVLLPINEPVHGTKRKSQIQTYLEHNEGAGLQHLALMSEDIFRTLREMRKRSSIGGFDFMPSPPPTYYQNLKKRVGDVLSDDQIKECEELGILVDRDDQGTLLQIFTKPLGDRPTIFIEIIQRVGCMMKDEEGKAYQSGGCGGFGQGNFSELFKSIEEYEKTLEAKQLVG
Briefly: biochemical. The following applies: K421Q mutant (SEQ ID No. 48); 2 mM HPP, 3 minutes incubation.
Description: as §1

The target in assay [5] is T5, Arabidopsis HPPD single point mutant SEQ ID No. 50 (Arabidopsis thaliana, UniProt P93836, K421V).
T5 construct: made in house; host or cells: E. coli BL21 (DE3)
T5 sequence (P93836 other isoform, or with tags, fused parts or gaps K421V): as the sequence (P93836 other isoform, or with tags, fused parts or gaps K421Q) above, with Q426V counted along it
Briefly: biochemical. The following applies: K421V mutant (SEQ ID No. 50); 2 mM HPP, 3 minutes incubation.
Description: as §1

For assay [6], the target named is T6, Arabidopsis HPPD single point mutant SEQ ID No. 46 (Arabidopsis thaliana, UniProt P93836, K421I).
T6 construct: made in house; host or cells: E. coli BL21 (DE3)
T6 sequence (P93836 other isoform, or with tags, fused parts or gaps K421I): as the sequence (P93836 other isoform, or with tags, fused parts or gaps K421Q) above, with Q426I counted along it
As to the kind of experiment: biochemical. Conditions: K421I mutant (SEQ ID No. 46); 2 mM HPP, 3 minutes incubation.
Description: as §1

Assay [7] concerns the target T7, Arabidopsis HPPD single point mutant SEQ ID No. 42 (Arabidopsis thaliana, UniProt P93836, P280A).
T7 construct: made in house; host or cells: E. coli BL21 (DE3)
As to the kind of experiment: biochemical. Conditions: P280A mutant (SEQ ID No. 42); 2 mM HPP, 3 minutes incubation.
Description: as §1

Assay [8] deals with T8, Arabidopsis HPPD single point mutant SEQ ID No. 44 (Arabidopsis thaliana, UniProt P93836, L368M).
T8 construct: made in house; host or cells: E. coli BL21 (DE3)
T8 sequence (P93836 other isoform, or with tags, fused parts or gaps L368M): as the sequence (P93836 other isoform, or with tags, fused parts or gaps K421Q) above, with L373M, Q426K counted along it
Briefly: biochemical. Conditions: L368M mutant (SEQ ID No. 44); 2 mM HPP, 3 minutes incubation.
Description: as §1

Where [9] appears, read: SEQ ID No. 32 (wild type), 2 mM HPP, 3 minutes incubation.

T3 sequence (P93836 other isoform, or with tags, fused parts or gaps V269A): as the sequence (P93836 other isoform, or with tags, fused parts or gaps K421Q) above, with V274A, Q426K counted along it
T7 sequence (P93836 other isoform, or with tags, fused parts or gaps P280A): as the sequence (P93836 other isoform, or with tags, fused parts or gaps K421Q) above, with P285A, Q426K counted along it

Consider `Cc1nn(C)c(O)c1C(=O)c1ccc(C(F)(F)F)cc1S(C)(=O)=O` [Pyrasulfotole], for which the pI50 came out at 5.4 in assay [1] (2 mM fixed HPP concentration, 3 minutes fixed incubation time, inhibitor 2.5 × 10^−6 to 2.5 × 10^−4 M); 5.4 in assay [1] (setting [9]); 4.3 in assay [2]; 4.4 in assay [3]; 4.8 in assay [4]; 4.4 in assay [5]. Further, the results for the pI50 in assay [6], in assay [7] and in assay [8] were 4.3, 4.4 and 5.0, respectively.
As to `Cc1ccc(S(=O)(=O)Oc2c(C(=O)c3ccc(Cl)cc3Cl)c(C)nn2C)cc1` [Pyrazolat], the pI50 in assay [1] (setting [9]) is reported as 5.4; in assay [2], 4.7; in assay [3] it was 4.4; in assay [4], 5.0; in assay [5] it was 4.5; in assay [6] it was 4.5. In addition, the pI50 is listed as 4.7 in assay [7] and 4.9 in assay [8].
